Measurements reported in the NIST ThermoML archive (doi:10.1021/je500696p).

Columns and labels:
[1] = xn = mol fraction of the nth substance listed; settings: 100 kPa, Liquid, Vibrating tube method
[2] = excess molar enthalpy (molar enthalpy of mixing); xn = mol fraction of the nth substance listed; settings: 100 kPa, Liquid, Calvet calorimetry

CCCC[N+](C)(C)C.O=S(=O)([N-]S(=O)(=O)C(F)(F)F)C(F)(F)F [butyltrimethylammonium bis(trifluoromethylsulfonyl)imide] + CN(C)C=O
Settings	excess molar enthalpy [kcal/mol]	mass density [kg/m3]
[1], 293.15 K, x2 = 0	–	1397.1
[1], 293.15 K, x2 = 0.1268	–	1379.7
[1], 293.15 K, x2 = 0.2011	–	1367.7
[1], 293.15 K, x2 = 0.3028	–	1348.7
[1], 293.15 K, x2 = 0.3824	–	1331.3
[1], 293.15 K, x2 = 0.5078	–	1297.4
[1], 293.15 K, x2 = 0.6249	–	1255.8
[1], 293.15 K, x2 = 0.7548	–	1191.6
[1], 293.15 K, x2 = 0.8764	–	1101.3
[1], 293.15 K, x2 = 0.9157	–	1061.9
[1], 295.15 K, x2 = 0	–	1395.3
[1], 295.15 K, x2 = 0.1268	–	1377.9
[1], 295.15 K, x2 = 0.2011	–	1365.9
[1], 295.15 K, x2 = 0.3028	–	1346.9
[1], 295.15 K, x2 = 0.3824	–	1329.5
[1], 295.15 K, x2 = 0.5078	–	1295.6
[1], 295.15 K, x2 = 0.6249	–	1253.9
[1], 295.15 K, x2 = 0.7548	–	1189.7
[1], 295.15 K, x2 = 0.8764	–	1099.4
[1], 295.15 K, x2 = 0.9157	–	1060
[1], 298.15 K, x2 = 0	–	1392.7
[1], 298.15 K, x2 = 0.1268	–	1375.3
[1], 298.15 K, x2 = 0.2011	–	1363.2
[1], 298.15 K, x2 = 0.3028	–	1344.2
[1], 298.15 K, x2 = 0.3824	–	1326.8
[1], 298.15 K, x2 = 0.5078	–	1292.8
[1], 298.15 K, x2 = 0.6249	–	1251.2
[1], 298.15 K, x2 = 0.7548	–	1186.8
[1], 298.15 K, x2 = 0.8764	–	1096.5
[1], 298.15 K, x2 = 0.9157	–	1057.1
[1], 303.15 K, x2 = 0	–	1388.3
[1], 303.15 K, x2 = 0.1268	–	1370.8
[1], 303.15 K, x2 = 0.2011	–	1358.8
[1], 303.15 K, x2 = 0.3028	–	1339.7
[1], 303.15 K, x2 = 0.3824	–	1322.2
[1], 303.15 K, x2 = 0.5078	–	1288.2
[1], 303.15 K, x2 = 0.6249	–	1246.5
[1], 303.15 K, x2 = 0.7548	–	1182.1
[1], 303.15 K, x2 = 0.8764	–	1091.8
[1], 303.15 K, x2 = 0.9157	–	1052.4
[1], 308.15 K, x2 = 0	–	1384
[1], 308.15 K, x2 = 0.1268	–	1366.4
[1], 308.15 K, x2 = 0.2011	–	1354.3
[1], 308.15 K, x2 = 0.3028	–	1335.2
[1], 308.15 K, x2 = 0.3824	–	1317.7
[1], 308.15 K, x2 = 0.5078	–	1283.6
[1], 308.15 K, x2 = 0.6249	–	1241.8
[1], 308.15 K, x2 = 0.7548	–	1177.4
[1], 308.15 K, x2 = 0.8764	–	1087
[1], 308.15 K, x2 = 0.9157	–	1047.6
[1], 313.15 K, x2 = 0	–	1379.6
[1], 313.15 K, x2 = 0.1268	–	1362
[1], 313.15 K, x2 = 0.2011	–	1349.9
[1], 313.15 K, x2 = 0.3028	–	1330.7
[1], 313.15 K, x2 = 0.3824	–	1313.1
[1], 313.15 K, x2 = 0.5078	–	1279
[1], 313.15 K, x2 = 0.6249	–	1237.2
[1], 313.15 K, x2 = 0.7548	–	1172.7
[1], 313.15 K, x2 = 0.8764	–	1082.3
[1], 313.15 K, x2 = 0.9157	–	1042.8
[1], 318.15 K, x2 = 0	–	1375.2
[1], 318.15 K, x2 = 0.1268	–	1357.6
[1], 318.15 K, x2 = 0.2011	–	1345.4
[1], 318.15 K, x2 = 0.3028	–	1326.2
[1], 318.15 K, x2 = 0.3824	–	1308.6
[1], 318.15 K, x2 = 0.5078	–	1274.5
[1], 318.15 K, x2 = 0.6249	–	1232.6
[1], 318.15 K, x2 = 0.7548	–	1168
[1], 318.15 K, x2 = 0.8764	–	1077.5
[1], 318.15 K, x2 = 0.9157	–	1038.1
[1], 323.15 K, x2 = 0	–	1370.9
[1], 323.15 K, x2 = 0.1268	–	1353.2
[1], 323.15 K, x2 = 0.2011	–	1341
[1], 323.15 K, x2 = 0.3028	–	1321.8
[1], 323.15 K, x2 = 0.3824	–	1304.1
[1], 323.15 K, x2 = 0.5078	–	1269.9
[1], 323.15 K, x2 = 0.6249	–	1227.9
[1], 323.15 K, x2 = 0.7548	–	1163.3
[1], 323.15 K, x2 = 0.8764	–	1072.8
[1], 323.15 K, x2 = 0.9157	–	1033.3
[1], 328.15 K, x2 = 0	–	1366.6
[1], 328.15 K, x2 = 0.1268	–	1348.8
[1], 328.15 K, x2 = 0.2011	–	1336.6
[1], 328.15 K, x2 = 0.3028	–	1317.3
[1], 328.15 K, x2 = 0.3824	–	1299.7
[1], 328.15 K, x2 = 0.5078	–	1265.4
[1], 328.15 K, x2 = 0.6249	–	1223.3
[1], 328.15 K, x2 = 0.7548	–	1158.6
[1], 328.15 K, x2 = 0.8764	–	1068
[1], 328.15 K, x2 = 0.9157	–	1028.6
[1], 333.15 K, x2 = 0	–	1362.3
[1], 333.15 K, x2 = 0.1268	–	1344.5
[1], 333.15 K, x2 = 0.2011	–	1332.3
[1], 333.15 K, x2 = 0.3028	–	1312.9
[1], 333.15 K, x2 = 0.3824	–	1295.2
[1], 333.15 K, x2 = 0.5078	–	1260.8
[1], 333.15 K, x2 = 0.6249	–	1218.7
[1], 333.15 K, x2 = 0.7548	–	1153.9
[1], 333.15 K, x2 = 0.8764	–	1063.3
[1], 333.15 K, x2 = 0.9157	–	1023.8
[2], 308.15 K, x2 = 0.1285	-0.0987	–
[2], 308.15 K, x2 = 0.2488	-0.167	–
[2], 308.15 K, x2 = 0.2496	-0.168	–
[2], 308.15 K, x2 = 0.2543	-0.168	–
[2], 308.15 K, x2 = 0.3983	-0.232	–
[2], 308.15 K, x2 = 0.5182	-0.272	–
[2], 308.15 K, x2 = 0.5211	-0.272	–
[2], 308.15 K, x2 = 0.6283	-0.284	–
[2], 308.15 K, x2 = 0.7679	-0.253	–
[2], 308.15 K, x2 = 0.889	-0.162	–
[2], 313.15 K, x2 = 0.1226	-0.0961	–
[2], 313.15 K, x2 = 0.2487	-0.167	–
[2], 313.15 K, x2 = 0.261	-0.174	–
[2], 313.15 K, x2 = 0.3939	-0.232	–
[2], 313.15 K, x2 = 0.5209	-0.273	–
[2], 313.15 K, x2 = 0.5249	-0.275	–
[2], 313.15 K, x2 = 0.625	-0.286	–
[2], 313.15 K, x2 = 0.7717	-0.247	–
[2], 313.15 K, x2 = 0.8796	-0.174	–
[2], 323.15 K, x2 = 0.129	-0.102	–
[2], 323.15 K, x2 = 0.2459	-0.169	–
[2], 323.15 K, x2 = 0.2473	-0.169	–
[2], 323.15 K, x2 = 0.3807	-0.229	–
[2], 323.15 K, x2 = 0.5174	-0.278	–
[2], 323.15 K, x2 = 0.5224	-0.279	–
[2], 323.15 K, x2 = 0.6286	-0.291	–
[2], 323.15 K, x2 = 0.7693	-0.26	–
[2], 323.15 K, x2 = 0.8804	-0.176	–
